Test results taken from patent publication US3968233A, “α-Amino-γ-butyrolactones as sedatives” (priority 1975, dated 1976).
Entries after “also recorded” stand apart in the source; their conditions may differ.

Experiments:
[1] = Excretion rate of intravenously-injected bromosulfonphthalein in bile; format: in vivo; conditions: single 500 mg/kg oral dose
Procedure: (§1) The effect of a single 500 mg/kg oral dose of AP-28 was determined on (a) diuresis in water-loaded rats, (b) choleresis, (c) the excretion rate of intravenously-injected bromosulfonphthalein in bile, (d) arterial blood pressure.

[2] = Protective effect against electroshock (MES); conditions: AP-28 250 mg/kg i.p., 10 minutes before electroshock
[3] = Enhancement of the hypnotic effect of sodium pentobarbital; format: in vivo, mouse
Procedure: Forty mg/kg of sodium pentobarbital was injected intraperitoneally into mice and note was taken of animals losing the righting reflex and for how long. Other mice received a preliminary treatment with AP-28 at a dosage of 250 and 500 mg/kg, intraperitoneally, and thereafter sodium pentobarbital was given to them.

[4] = Avoidance reflex in conditioned mice; format: in vivo, mouse; conditions: control 53.3 ± 4.5 sec
From the text: A conditioning cage was constructed of two chambers with free access between chambers. The floor of one compartment was electrified to make it possible to deliver a mild shock. Mice were conditioned by first giving a warning signal and then after a short period of time the shock was applied. Eventually the mice learned to leave the electrified compartment after the warning bell sounded and they were then judged to be conditioned. The average period of time, in this experiment, for control animals (4) to leave the compartment was 53.3 ± 4.5 sec. Four conditioned mice were administered AP-28 intraperitoneally with 250 mg/kg and their time was 60.6 ± 3.9 sec. Four more conditioned mice treated with 500 mg/kg of AP-28 required 77.5 ± 2.7 sec. to clear the compartment.

[5] = Clinical trial, 1st group: insomnia; format: in vivo, human; conditions: 400-600 mg one dose at night, 5 to 15 days; seven patients
Procedure: (§2) Clinical trials were performed on three groups of patients, partly hospitalized patients and partly outpatients. It was determined that the effect observed in the experimental pharmacological studies were useful in the treatment of humans as well.
Seven patients complaining of insomnia were treated for a period of time varying from 5 to 15 days. The daily dose was 400-600 mg given as one dose at night.

[6] = Time to death by slow intravenous infusion of strychnine; format: in vivo, mouse; conditions: for mean infusion time to cause animals to die: strychnine infusion 0.25 ml/min
Procedure: (3) continuous intravenous infusion at constant rate (0.4 ml/min) of a strychnine sulfate solution (26.66 mg/l) was carried out by injection through a tail vein into mice until they died. One group of animals received 500 mg/kg of AP-28 as preliminary treatment 15 minutes prior to the beginning of infusion. The mean infusion time to cause six control animals to die was 134 ± 3.2 seconds (mean ± SE). The mean infusion time required to obtain the same effect in animals pretreated with AP-28 was 210 ± 6.1 seconds.
In another experiment the infusion rate of strychnine was lowered to 0.25 ml/min. Under this condition, the mean infusion time was 246 ± 3.1 seconds in the case of controls (six animals) and 338 ± 24.3 seconds in that of treated animals.
When the same infusion rate as above was maintained and the amount of AP-28 was reduced to 250 mg/kg, the mean infusion time was 260 ± 13.4 seconds with control animals and 360 ± 21.2 seconds with treated animals.

[7] = Influence on amphetamine-induced hypermobility; format: in vivo, mouse; conditions: d-amphetamine sulfate 5 mg/kg i.p. + AP-28 250 mg/kg i.p. 15 minutes later
Procedure: Six groups of 4 mice each were treated with 5 mg/kg d-amphetamine sulfate by intraperitoneal administration. Six groups of 4 animals each received the same dose of d-amphetamine sulfate plus 250 mg/kg of AP-28 intraperitoneally 15 minutes after d-amphetamine sulfate; six more groups of four animals each received saline solution and served as control animals. […] The number of times each animal crossed the light beam throughout the 10-minute test was noted.

[8] = Clinical trial, 2nd group: strain and anxiety; format: in vivo, human; conditions: 500 to 1500 mg/day
Procedure: as §2
The dose levels used with these patients varied between 500 and 1500 mg/day, divided into two or three doses which were given during the day.

[9] = Diuresis in water-loaded rats; format: in vivo, rat
Procedure: as §1

[10] = Protective effect against strychnine (single injection); format: in vivo, mouse; conditions: 30 minutes before strychnine
Procedure: This type of antagonism was evaluated in the mouse in three ways, namely: (1) protection from death from one hypodermic injection of strychnine: (2) evaluation of the LD50 of strychnine in mice both treated and untreated with AP-28, and (3) influence on the time required to cause animals to die by slow intravenous perfusion of strychnine. […] Groups of six mice were used. (2) increasing amounts of strychnine sulfate were injected hypodermically. In two experiments 200 or 400 mg/kg of intraperitoneal AP-28 were given 30 minutes prior to strychnine injection and the LD50 was calculated. The following results were obtained (95-percent confidence limits): […]

[11] = AP-28 250 + sodium pentobarbital 40 mg/kg i.p.
[12] = AP-28 500 + sodium pentobarbital 40 mg/kg i.p.

Compound: CCCCOC(=O)NC1CCOC1=O (stereo not drawn) [AP-28, α-n-butoxycarbonyl-amino-γ-butyrolactone]
- excretion rate of bromosulfonphthalein in bile [1]: No treatment caused any significant change
- Number animals died [2]: 0/8
- Number animals with clonic convulsions ([2]; in parentheses number treated): 8(8)
- Number animals with tonic convulsions ([2]; in parentheses number treated): 0(8)
- Animals under hypnosis/treated [3, 11]: 4/4
- Duration of hypnosis in minutes (m ± SE) [3, 11]: 52.5 ± 13 min
- Animals under hypnosis/treated [3, 12]: 4/4
- Duration of hypnosis in minutes (m ± SE) [3, 12]: 75.2 ± 21.6 min
- time to leave the electrified compartment ([4]; 250 mg/kg i.p.): 60.6 ± 3.9 s
- time to leave the electrified compartment ([4]; 500 mg/kg i.p.): 77.5 ± 2.7 s
- effects on awakening (blunting or grogginess) [5]: no blunting or grogginess of their minds when they woke up; also recorded: no apparent effects on awakening
- mean infusion time to cause animals to die ([6]; AP-28 250 mg/kg, control 260 ± 13.4): 360 ± 21.2 s
- mean infusion time to cause animals to die (mean ± SE) ([6]; AP-28 500 mg/kg, 15 minutes prior, strychnine infusion 0.4 ml/min, control 134 ± 3.2): 210 ± 6.1 s
- mean infusion time to cause animals to die ([6]; AP-28 500 mg/kg, control 246 ± 3.1): 338 ± 24.3 s
- Mean number of crossings (± SE) in 10 minutes [7]: 836 ± 100
- somnolence, daily torpor or motive conceptual slowness [8]: in no case somnolence, daily torpor or motive conceptual slowness were observed; also recorded: without causing daily drowsiness or torpor
- disorders or difficulty in usual working activity ([8]; outpatients): No outpatient reported disorders or difficulty in carrying out their usual working activity
- rate of urine excretion ([9]; 500 mg/kg oral daily for 5 subsequent days): the rate of urine excretion was slowed
- diuresis ([9]; single 500 mg/kg oral dose): No treatment caused any significant change
- Animals with convulsions/treated ([10]; 250 mg/kg i.p.): 7/7
- Died/treated ([10]; 250 mg/kg i.p.): 1/7
- Time of death ([10]; 250 mg/kg i.p., extreme values): 33 min
- Animals with convulsions/treated ([10]; 500 mg/kg i.p.): 3/8
- Died/treated ([10]; 500 mg/kg i.p.): 0/8
- Animals with convulsions/treated ([10]; 500 mg/kg os): 5/9
- Died/treated ([10]; 500 mg/kg os): 0/9
